Source: patent US7772367B2, “C-terminal p53 palindromic peptide that induces apoptosis of cells with aberrant p53 and uses thereof” (The Trustees of Columbia University in the City of New York, priority 2004, dated 2010)
“Also recorded” adds a separate entry of the source. Where a SMILES comes first, the peptide text is derived from it. The star is where a group is joined. Cbz = O=C(OCc1ccccc1)*; CH2F = FC*

Legend:
[1] = system: engineered MDA-MB-468 human breast cancer cells; experiment: TUNEL assay with flow cytometry on engineered cells; format: cell-based; conditions: 2 μM inhibitor added 6 hours after doxycycline, 24 hr total
Experimental: TUNEL assay on engineered MDA-MB-468 human breast cancer cells after 24 hours of exposure to 2 μg/ml Doxycycline.
(§1) Furthermore, using a specific inhibitor for caspase 8 eliminated the death induced by the C-terminal p53 palindromic tetrapeptide expression. The cleavage of the DNA repair signal protein poly-adenosyl-ribose polymerase (PARP), a key indicator of apoptosis, was also observed with the C-terminal p53 palindromic tetramer expression (FIGS. 5 and 6). Finally, one of the later events to occur as cells are undergoing apoptosis is the endonuclease cleavage of chromatin DNA at the DNA linker site between nucleosomes. These DNA fragments can be end-labeled with fluorescent-dUTP with the use of terminal deoxynucleotidyl transferase. This technique, called TUNEL, is extremely sensitive for the detection of apoptosis. We used a commercial TUNEL assay (Medical & Biological Labs, Nagoya, Japan) with flow cytometry to examine these engineered cells. By this assay, 80% of the cells were killed with induction of the 4 repeat by doxycycline treatment (FIG. 7). Furthermore, by using a specific inhibitor for caspase 8, IETD-FMK ([…], Nagoya, Japan), death induced by the C-terminal p53 palindromic peptide expression (FIG. 7) was eliminated. All of these findings support an apoptotic mechanism of cell death by this peptide.

[2] = system: p53 responsive proteins (Bax, Fas, caspase 8) and PARP in engineered MDA-MB-468 cells; experiment: Immunoblot of p53 responsive proteins and PARP cleavage after doxycycline induction; format: cell-based, human; conditions: for Bax expression: doxycycline 2 μg/ml, 12, 36 and 48 hours; for PARP cleavage product: after 4-repeat induction with doxycycline
Experimental: Changes in the protein expression levels for the pro-apoptotic protein Bax, an active p53 responsive gene, induced by exposure to the tetracycline analog doxycycline (2 μg/ml) for 12, 36 and 48 hours. Engineered MDA-MB-468 cells were collected after the indicated exposure times and the total protein was extracted, an aliquot was run on a 12% acrylamide/SDS PAGE gel, and blotted onto nitrocellulose membranes. Antibodies specific for Bax, the 4-repeat (p53) and PARP were used to determine expression levels and α-tubulin was used as a loading control.
Changes in the protein expression levels for the p53 responsive genes encoding Fas and caspase 8, 24 hours after the engineered MDA-MB-468 cells were exposed to the indicated concentrations of doxycycline. A PARP cleavage product is also shown. α-tubulin was used as a loading control.
For the tetracycline-inducible peptide systems in MDA-MB-468 cells, cells were exposed to various concentrations of doxycycline for 24-48 hours and cell death measured by trypan blue exclusion (only dying cells are permeable to this dye) and propidium iodide staining (as above, in cells undergoing apoptosis DNA is cleaved so less PI can be bound resulting in accumulation of a sub-G1 peak of cells on flow cytometry). […] This implies a unique difference between the monomer and the 4 repeat.
as §1

[3] = system: MDA-MB-468 human breast cancer cells; experiment: Propidium iodide staining / flow cytometry (sub-G1) of cells exposed to purified peptide; format: cell-based; conditions: 30 uM peptide, 6 hours
Experimental: Effects of the C-Terminal p53 Palindromic Tetrapeptide on Cells in Culture. MDA-MB-468 human breast cancer cells were grown in culture and exposed for 6 hours with no peptide (control) or with 30 μM of either the single p53 C-terminal peptide fused to the Ant carrier (p53-Ant) or with the His tagged p53 palindromic tetrapeptide fused to the Ant carrier (4 Repeat). The DNA within the cells was then stained with propidium iodide and cell particles were assayed by flow cytometry. The percent within each graph represents the percent cell particles with less than a diploid amount of DNA, indicative of apoptotic cells (sub G1 population).
In order to test the effect of the C-terminal p53 palindromic peptide cloned in E. Coli on cells in culture, the purified peptide was incubated at 30 μM with the human breast cancer cell line MDA-MB-468, and the effects compared to original monomer or single C-terminal peptide. Prior experiments had shown that exposure at this concentration was less than the IC50 for the original peptide. […] The DNA content was then quantified by flow cytometry in a FACSCalibur Cell Sorter (BD Bioscience, San Diego, Calif.). Cell cycle profiles were obtained, and the percentage of cells containing less than the diploid amount of DNA, indicative of cell undergoing cell death by apoptosis (sub-G1 peak), was quantified (FIG. 3).

9L rat glioma = experiment: Survival of rats with intracerebral 9L glioma infused with adenovirus; format: in vivo, male fischer rats; conditions: concluding statement of rat glioma study
Experimental: Survival analysis of male rats initially injected with 5 μl of 10^5 9L cells over […] (Tumor implantation) through a catheter stereotactically inserted into the right caudate nucleus. These rats were subsequently infused with 7-8 μl volumes per day over 3 hours a day for a total of 7 days in three groups as follows: 2 rats received phosphate buffered saline (PBS control) solution, 3 rats received Ad/vector control virus (Empty Virus Control), and 10 rats received Ad/4-rep-p53p adenovirus containing the tetrapeptide C-terminal p53 peptide.) The average survival time for the groups were: 20 days for the PBS control group, 27 days for the adenovirus vector control group (23.25 days for the combined control groups) and 37.25 days for the Ad/4-rep-p53p Adenovirus treated group. Thus, the treatment group infected with the adenovirus containing the C-terminal palindromic tetrapeptide experienced an 86% increase in survival compared to the PBS controls and a 60% increase in survival compared to the combined controls. […]
For animal studies, 15 male fischer rats (age 12-14 weeks, 250 g) were anesthetized, and a 20 gauge plastic guide cannula was cemented into their skulls. […] The rats were monitored for an additional 44 days to determine differences in survival among groups.

MDA-MB-468 cells [4] = experiment: Propidium iodide staining / flow cytometry (sub-G1) in tetracycline-inducible peptide-expressing cells; format: cell-based, human
Experimental: Effects of endogenous, regulated expression of the 4 repeat peptide on cell viability. MDA-MB-468 cells engineered to express the palindromic p53 4 repeat peptide under the control of a tetracycline responsive promoter were cultured without or with the addition of 2 μg/ml doxycycline, an analog of tetracycline, for 24, 48 or 72 hours. Cells were collected, fixed in ice cold 70% ethanol and the DNA was stained with propidium iodide. Cell cycle profiles were obtained by flow cytometry and the percent of sub-G1 cell particles, indicative of apoptosis, was quantified.
The MDA-MB-468 breast cancer cell line which expresses high levels of mutant p53 (Arg to His substitution at amino acid 273, one of the two most common p53 mutations in human cancers) was chosen as the model system. The tetracycline-inducible RevTet-On System (Clontech Laboratories, Palo Alto, Calif.) was used for these studies. […]
(§2) For the tetracycline-inducible peptide systems in MDA-MB-468 cells, cells were exposed to various concentrations of doxycycline for 24-48 hours and cell death measured by trypan blue exclusion (only dying cells are permeable to this dye) and propidium iodide staining (as above, in cells undergoing apoptosis DNA is cleaved so less PI can be bound resulting in accumulation of a sub-G1 peak of cells on flow cytometry). […]

[5] = system: normal cells including the pluripotent stem cells for granulocytes, erythrocytes, monocytes and macrophages; experiment: Effect on normal cells; format: cell-based
MDA-MB-468 tumors = experiment: Inducible expression in MDA-MB-468 tumors in athymic nude mice; format: in vivo; conditions: doxycycline 0.5 mg/ml in drinking water; described in present tense
Experimental: Four groups of ten animals each are used. Groups 1 and 2 are injected with one million MDA-MB-468 cells containing the inducibly expressible palindromic tetramer in 0.5 ml of basement membrane media. Groups 3 and 4 are injected with one million MDA-MB-468 cells containing the inducibly expressible GFP. The tumors are allowed to develop to a measurable state (approximately 2-3 weeks). Then groups 1 and 3 are given 0.5 mg/ml doxycycline in their drinking water, and groups 2 and 4 are given drinking water without doxycycline. Tumor sizes are measured daily. Animals are then euthanized and the tumors removed for analysis. Tumor sections are assayed for levels of apoptosis by DNA cleavage assay (TUNEL) and activation of caspases and cleavage of PARP.

MDA-MB-468 cells [6] = experiment: Trypan blue exclusion in tetracycline-inducible peptide-expressing cells; format: cell-based, human; conditions: doxycycline induction 24-48 hours
From the text: The MDA-MB-468 breast cancer cell line which expresses high levels of mutant p53 (Arg to His substitution at amino acid 273, one of the two most common p53 mutations in human cancers) was chosen as the model system. The tetracycline-inducible RevTet-On System (Clontech Laboratories, Palo Alto, Calif.) was used for these studies. Stably expressed reverse tetracycline-controlled transactivator (rtTA), under the control of a CMV promoter, was first established in the MDA-MB-468 cell line. Initially immunoblots with an antibody against the transactivator were used to identify high expression; subsequently a luciferase reporter system was used to identify highly inducible clones. This assay incorporated a luciferase reporter (Promega, Madison, Wis.) with the inducible pREvTRE vector of the RevTet-On system to measure the ability of tetracycline to induce luciferase activity. […]
as §2

CC[C@H](C)[C@H](NC(=O)OCc1ccccc1)C(=O)N[C@@H](CCC(=O)OC)C(=O)N[C@H](C(=O)N[C@@H](CC(=O)OC)C(=O)CF)[C@@H](C)O [IETD-FMK] (Cbz-IE(OMe)TD(OMe)-CH2F)
effect of caspase 8 inhibitor on death/TUNEL shift induced by palindromic peptide expression [1]: no shift occurs; also recorded: eliminated

CSCC[C@H](NC(=O)[C@H](CCCCN)NC(=O)[C@H](Cc1c[nH]c2ccccc12)NC(=O)[C@H](CCCCN)NC(=O)[C@H](CCCCN)NC(=O)[C@H](CCCCN)NC(=O)[C@H](CCCCN)NC(=O)[C@H](Cc1c[nH]cn1)NC(=O)[C@H](CCCNC(=N)N)NC(=O)[C@H](CO)NC(=O)[C@@H](NC(=O)[C@H](CO)NC(=O)[C@H](CCC(N)=O)NC(=O)CNC(=O)[C@H](CCCCN)NC(=O)[C@H](CCCCN)NC(=O)[C@H](CO)NC(=O)[C@H](CCCCN)NC(=O)[C@H](CC(C)C)NC(=O)[C@H](Cc1c[nH]cn1)NC(=O)[C@H](CO)NC(=O)[C@H](CO)NC(=O)[C@H](Cc1c[nH]cn1)NC(=O)[C@H](C)NC(=O)[C@H](CCCNC(=N)N)NC(=O)[C@H](CO)NC(=O)CN)[C@@H](C)O)C(=O)N[C@@H](CCCNC(=N)N)C(=O)N[C@@H](CCCNC(=N)N)C(=O)N[C@@H](CC(N)=O)C(=O)N[C@@H](CCC(N)=O)C(=O)N[C@@H](Cc1ccccc1)C(=O)N[C@@H](Cc1c[nH]c2ccccc12)C(=O)N[C@H](C(=O)N[C@@H](CCCCN)C(=O)N[C@H](C(=O)N[C@@H](CCC(N)=O)C(=O)N[C@@H](CCCNC(=N)N)C(=O)NCC(=O)O)C(C)C)C(C)C [p53 C-terminal peptide (single repeat), reference compound] (H-GSRAHSSHLKSKKGQSTSRHKKKKWKMRRNQFWVKVQRG-OH; N-terminus and C-terminus assumed)
Bax expression [2]: did not
cell death (PI staining, sub-G1 population) [3]: 23%

p53 palindromic tetramer: C-terminal p53 palindromic tetrapeptide (four aa 353-393 segments, glycine-linked) expressed in cells from inducible or viral construct
apoptosis of cancer cells in animals (9L rat glioma): found to induce apoptosis
cell death (sub-G1 peak, propidium iodide staining) (MDA-MB-468 cells [4]; after doxycycline induction, stably expressing cell lines): 43%
apoptosis (propidium iodide staining and flow cytometry) (MDA-MB-468 cells [4]; doxycycline induction, FIG. 4): greater than 40%
effect on normal cells [5]: no to minimal effect
Fas expression ([2]; 24 hours doxycycline): increase in the expression
caspase 8 expression ([2]; 24 hours doxycycline): increase in the expression
PARP cleavage product [2]: observed even 12 hours after
PARP cleavage product ([2]; listed as C-terminal p53 palindromic tetramer): observed
Bax expression [2]: increase in the expression
apoptosis of cancer cells in animals (MDA-MB-468 tumors): found to induce apoptosis
decrease in viability (trypan blue exclusion) (MDA-MB-468 cells [6]): greater than 80%
